In patent US7902234B2, “Thiadiazoline derivative” (Kyowa Hakko Kirin Co., Ltd., priority 2001, dated 2011):

System: HCT 116 cells
Experiment: Antiproliferative activity in HCT 116 human colon cancer cells (XTT)
Format: cell-based
Conditions: 72 hours incubation with compound, XTT absorbance 490 nm minus 655 nm, read-out: GI50 (concentration of 50% proliferation inhibition)
Procedure: HCT 116 cells (ATCC No.: CCL-247) were placed on a 96-well microliter plate (Nunc, 167008) at a density of 1×10^3 cells/well. The plate was incubated in a 5% CO2 incubator at 37° C. for 24 hours, and then to the plate was added test compounds diluted stepwise to […] in total, and the plate was further incubated in a 5% CO2 incubator at 37° C. for 72 hours. To the culture medium, the XTT (sodium 3′-[1-(phenylaminocarbonyl)-3,4-tetrazolium)-bis(4-methoxy-6-nitro)benzenesulfonic acid hydrate) labeling mixture (Roche Diagnostics, 1465015) was dispensed in […] portions, then the plate was incubated in a 5% CO2 incubator at 37° C. for 1 hour, and the absorbance was measured at 490 nm and 655 nm with a microplate spectrophotometer (Bio-Rad, Model 550). The inhibitory activity against cell proliferation was shown as a concentration of 50% proliferation inhibition, GI50.
GI50 calculation method: The value (difference in absorbance) was calculated by subtracting the absorbance at 655 nm from the absorbance at 490 nm of each well. […]

| Compound | GI50 |
| --- | --- |
| CC(=O)NC1=NN(C(C)=O)C(C)(c2ccccc2)S1 (centres unmarked) [Compound 1] | 1000 nM |
| CC(=O)N(C)C1=NN(C(C)=O)C(C)(c2ccccc2)S1 (centres unmarked) [Compound 7] | 480 nM |
